Laboratory results reported in US10696731B2, “Oligopeptide-free cell culture media” (Baxalta GmbH, priority 2006, dated 2020).

Key:
GD8/6 cells [1] = assay: Small scale spinner flask culture of GD8/6 cells in BAV-medium: FVIII productivity and growth rate; settings: added to BAV-medium, range 0-18 mg/L; spinner flasks 200 ml
Protocol: Cell counts from suspension cells or immobilized cells were determined either by counting with a CASY® cell counter as described by Scharfe et al., Biotechnologie in LaborPraxis 10: 1096-1103 (1988), or by citric acid extraction and fluorescent staining of the nuclei followed by counting with a NucleoCounter® (Chemometec, DK). The specific growth rate (p) is calculated from the increase of the cell densities(Xt) and/or the dilution rate (D) of the steady state of chemostat cultures of suspensions cells over a certain time interval (t): μ=D+ln(Xt/XO)/t
The activity of Factor VIII (FVIII) (cf. FIGS. 1 to 5) was measured by a chromogenic assay (Chromogenic, Sweden).
The cell specific productivity (qp) is defined as the specific amount of produced protein (U or μg) per number of cells per day.
Small scale experiments with GD8/6 cells in suspension culture were carried out in Techne spinner flasks at 200 ml working volume in batch refeed mode at 37° C., without pH and pO2 control.

GD8/6 cells [2] = assay: FVIII expression and growth of GD8/6 cells in 10 L chemostat culture with BAV-medium; format: cell-based
Protocol: The volumetric productivity (QP) is calculated from the amount of activity units yielded per liter reactor volume per day (U/L/d) in the production system.
Cell cultures of recombinant mammalian cells (e.g., CHO-cells stably expressing Factor VIII, such as GD8/6 cells) were grown in suspension in a chemostat culture in 10 l bioreactors. The culture conditions of 37° C., oxygen saturation 20%, and pH 7.0 to 7.1 were kept constant. The cultures were supplied with a constant feed of BAV-medium.

[3] = 2 mg/L plus additional supplementation with Fe (II) and Cu (II)

NCCC[C@H](N)C(=O)O [Ornithine]
ability to substitute putrescine (FVIII productivity and growth) (GD8/6 cells [1]): could partially substitute putrescine in a concentration-dependent manner

NCCCCN [Putrescine.2HCl]
volumetric productivity (GD8/6 cells [2]; 2 mg/L plus Fe (II) and Cu (II), after a further increase of the cell density): over 3000 U/L/D
cell specific productivity (GD8/6 cells [2]; [3]): over 1700 mU/10E06 cells/day
specific growth rate (GD8/6 cells [2]; [3]): approximately 0.60 d^−1
volumetric productivity (GD8/6 cells [2]; [3]): over 2685 U/L/D
increase of volumetric FVIII-expression (GD8/6 cells [2]; addition of 2 mg/L after 11 days of continuous feed of BAV-medium, 10 L bioreactor): 800%
FVIII expression (volumetric productivity) (GD8/6 cells [2]; addition of 2 mg/L, BAV-medium without it averaged 271 U/L/D): 870 U/L/D

NCCO [ethanolamine, reference compound]
ability to substitute putrescine (FVIII productivity and growth) (GD8/6 cells [1]): could neither replace putrescine in any concentration investigated

NCCCNCCCCNCCCN [spermine]
ability to substitute putrescine (FVIII productivity and growth) (GD8/6 cells [1]): could also substitute putrescine in a concentration-dependent manner
